ChEMBL document CHEMBL5604062, “ASAP - ZIKV NS2B-NS3 protease fluorescence dose response” (2024)
Several values for one entry are separate records, joined by “and”; a condition that tells them apart may be missing. Identical values can stand only once.

The molecules below were run against Nonstructural protein 3 (Zika virus, UniProt A0A024AXB9) (assay: Functional biochemical assay to identify treatments for viral infectious disease that targets Zika NS2B-NS3 protease. Utilizing a direct enzyme activity measurement method, reading the fluorescence intensity is used to characterize the relative potency of inhibitors as IC50.).
Parameters: species or system PRVABC59

Chain of Nonstructural protein 3 (A0A024AXB9 whole entry): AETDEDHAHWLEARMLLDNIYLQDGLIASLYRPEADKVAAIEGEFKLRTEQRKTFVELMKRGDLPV

SMILES	IC50
c1ccc2nc(SCc3cn4ccccc4n3)cnc2c1	> 99.5 µM
c1ccc(C2CCN(Cc3ccc4nccnc4c3)CC2)nc1	> 99.5 µM
c1cc2sccc2c(N2CCN(Cc3ccc4cn[nH]c4c3)CC2)n1	> 99.5 µM
Brc1cnn(C2CCN(Cc3csnn3)CC2)c1	> 99.5 µM
[O-][S@@+](Cc1nc(-c2cccs2)no1)c1cccs1	> 99.5 µM
C[S@@+]([O-])c1nncn1Cc1ccc(Cl)s1	> 99.5 µM
c1nnc(SCCCSc2nncs2)s1	> 99.5 µM
O=c1ccn(Cc2cc(=O)n3ccccc3n2)c2ccsc12	> 99.5 µM
Brc1nc(Br)n(Cc2cscn2)n1	> 99.5 µM
Cn1ncnc1Sc1nc(C2CCCC2)ns1	> 99.5 µM
NCc1cccc(NC(=O)c2cc(C3CC3)nc3ccc(Cl)cc23)c1	> 99.5 µM
O=C(Nc1cc(Cl)cc(C(=O)Nc2ccnc([C@H]3CCCN3)n2)c1)OCc1ccccc1	82.6 µM
NCc1cccc([C@H]2C[C@@H]2c2cc(Cl)cc(NC(=O)OCc3ccccc3)c2)c1	7.36 µM and 6.03 µM
Cn1cncc1COc1cccc([C@H](NC(=O)OCc2ccccc2)C(=O)Nc2cccc(CN)c2)c1	32.6 µM
CS(=O)(=O)N(c1cc(Cl)cc(C(=O)Nc2cccc(CN)c2)c1)S(C)(=O)=O	> 99.5 µM
Cc1cc(CN)cc(C)c1NS(=O)(=O)c1ccc(Oc2ccccc2Cl)cc1	81.3 µM
N#Cc1ccc(OCCn2nnn(-c3ccccc3)c2=O)cc1	> 99.5 µM
NC1(c2cccc(NS(=O)(=O)c3ccc(Oc4ccccc4Cl)cc3)c2)CCOCC1	> 99.5 µM
CCc1c(C(=O)Nc2cccc(CN)c2)c2cc(Cl)ccc2n1C	> 99.5 µM
N#Cc1ccc(S(=O)(=O)CCn2nc(-c3ccco3)oc2=O)cc1	> 99.5 µM
O=c1ccc(N2CCN(Cc3c[nH]c4ccccc34)CC2)c[nH]1	> 99.5 µM
COc1cn(-c2cccc(C(F)(F)F)c2)nc1C(=O)Nc1cccc(CN)c1	> 99.5 µM

SMILES	IC50
NCc1cccc(NC(=O)c2cc(N)cc(Cl)c2)c1	39.6 µM
c1cncc(CN2CC[C@H](NCc3c[nH]c4ccccc34)C2)c1	> 99.5 µM
CCOc1cccc(-c2ccc(S(=O)(=O)Nc3ccc(Cl)cc3C(=O)O)cc2C)c1	11.1 µM
NC1CN(c2ccc(NS(=O)(=O)c3ccc(Oc4ccccc4Cl)cc3)cn2)C1	> 99.5 µM
NCc1cccc(NC(=O)[C@H](NC(=O)OCc2ccccc2)c2cccc(-c3ccnc(N)c3)c2)c1	48.1 µM
Cc1cc(C(=O)Nc2cccc(CN)c2)n2nc(C(F)(F)F)cc2n1	> 99.5 µM
CC(C)(C)OC(=O)NCc1cccc(NC(=O)C[C@H](N)c2ccc(OCc3ccccc3)c(Br)c2)c1	> 99.5 µM
N[C@H]1CCCc2ccc(NC(=O)c3cc(Cl)cc(NC(=O)OCc4ccccc4)c3)cc21	12.1 µM
C[C@H]1CC[C@@](Cc2nc3ccccc3[nH]2)(C(=O)Nc2cccc(CN)c2)CC1	> 99.5 µM
NC1(c2cccc(NC(=O)c3cc(Cl)cc(NC(=O)OCc4ccccc4)c3)c2)CCOCC1	> 99.5 µM
Cc1ccc(OCc2ccccc2Cl)c(C(=O)Nc2cccc(CN)c2)c1	43.2 µM
CS(=O)(=O)Nc1cc(Cl)cc(C(=O)Nc2cccc(CN)c2)c1	> 99.5 µM
CCc1cc(NC(=O)OCc2ccccc2)cc(C(=O)Nc2cccc(CN)c2)c1	39.8 µM
NCc1cccc(NC(=O)c2cc(CO)cc(NC(=O)OCc3ccccc3)c2)c1	> 99.5 µM
NCc1cc(Cl)cc(C(=O)Nc2cccc(C3CCNCC3)c2)c1	25.8 µM
COc1ccc(-c2cccc([C@H](NC(=O)OCc3ccccc3)C(=O)Nc3cccc(CN)c3)c2)c(C#N)c1	11.2 µM
NCc1cccc(NC(=O)[C@H](NC(=O)OCc2ccccc2)c2cccc(-c3ccccn3)c2)c1	82.4 µM
NCc1cccc(NC(=O)[C@H]2CCc3nnc(-c4ccc(F)cc4)n3C2)c1	> 99.5 µM
Cc1ccc(NS(=O)(=O)c2ccc(Oc3ccccc3Cl)cc2)cc1CN	> 99.5 µM
CC(C)(CNCc1c[nH]c2ccccc12)c1cccnc1	> 99.5 µM
O=C(Nc1cc(Cl)cc(C(=O)Nc2cccc([C@H]3CCNC3)c2)c1)OCc1ccccc1	8.73 µM and 11.6 µM
NCc1cccc(NC(=O)c2cc(Cl)cc(NC(=O)NCc3ccccc3)c2)c1	2.1 µM

SMILES	IC50
COc1ccc(F)cc1-c1ccc(S(=O)(=O)Nc2cc(Cl)cc(C(=O)O)c2)cc1	> 99.5 µM
CCCN(C)C(=O)Cn1ccnc(N2CC[C@H](CO)C2)c1=O	> 99.5 µM
NCc1ccc(NC(=O)[C@H]2[C@H]3CCCCC[C@H]3[C@H]2NC(=O)OCc2ccccc2)cc1	36.6 µM
O=C(Nc1cc(Cl)cc(C(=O)Nc2nc([C@H]3CCCN3)cc(=O)[nH]2)c1)OCc1ccccc1	92 µM
CCc1onc(-c2ccc(Br)cc2)c1C(=O)Nc1cccc(CN)c1	> 99.5 µM
Brc1cccc2cn(Cc3ncccn3)nc12	> 99.5 µM
c1ccc2[nH]c(CC3CCN(Cc4nccs4)CC3)nc2c1	> 99.5 µM
O=C(Nc1cc(Cl)cc(C(=O)Nc2cccc([C@H]3CCCN3)c2)c1)OCc1ccccc1	27.6 µM
NCc1cccc(NC(=O)[C@@H]2C[C@@H](O)CN2C(=O)C23CC4CC(CC(C4)C2)C3)c1	> 99.5 µM
Cn1c(Sc2nc3ccccc3o2)nc2sccc2c1=O	> 99.5 µM
O=C(Nc1cc(Cl)cc(C(=O)Nc2cccc(CO)c2)c1)OCc1ccccc1	> 99.5 µM
NCc1cccc(NC(=O)c2cc3c(F)cc(F)c(F)c3[nH]2)c1	42.4 µM
NCc1cccc(NC(=O)[C@H](NC(=O)OCc2ccccc2)c2cccc(-c3ccc4c(c3)CC(=O)N4)c2)c1	8.83 µM
Cc1ccc(CN)cc1-c1cccc([C@H](NC(=O)OCc2ccccc2)C(=O)Nc2cccc(CN)c2)c1	18.2 µM
NCc1ccc(NS(=O)(=O)c2ccc(Oc3ccccc3Cl)cc2)cc1Cl	> 99.5 µM
O=C(NCc1ccco1)c1csc(Br)c1	> 99.5 µM
CC(C)(C#N)c1cc(C(=O)Nc2cccc(CN)c2)cc(C(F)(F)F)c1	> 99.5 µM
O=C(NCc1nccs1)c1sccc1Cl	> 99.5 µM
N[C@H](CO)c1cccc(NC(=O)c2cc(Cl)cc(NC(=O)OCc3ccccc3)c2)c1	57.4 µM
CCNC(=O)Nc1cc(Cl)cc(C(=O)Nc2cccc(CN)c2)c1	0.659 µM
Cc1c(F)cc(C(=O)Nc2cccc(CN)c2)c(F)c1NC(=O)OCc1ccccc1	63.9 µM
NCc1cccc(NC(=O)c2ccc(=O)n(Cc3ccccc3Cl)c2)c1	> 99.5 µM

SMILES	IC50
NC1CN(c2ncccc2NS(=O)(=O)c2ccc(Oc3ccccc3Cl)cc2)C1	> 99.5 µM
NC1(c2cccc(NC(=O)c3cc(Cl)cc(NC(=O)OCc4ccccc4)c3)c2)CC1	> 99.5 µM
NCc1cccc(Oc2ccc(S(=O)(=O)Nc3ccc(Cl)cc3C(=O)NCC(F)(F)F)cc2)c1	> 99.5 µM
NC(=O)c1cccc(NC(=O)c2cc(Cl)cc(NC(=O)OCc3ccccc3)c2)c1	> 99.5 µM
C#Cc1cc(CN)ccc1NS(=O)(=O)c1ccc(Oc2ccccc2Cl)cc1	> 99.5 µM
CCc1cc(C(=O)Nc2cccc(CN)c2)sc1-c1ccc(Cl)cc1	8.99 µM
O=c1ccc(-n2cncn2)nn1CC=Cc1ccccc1	> 99.5 µM
CCSc1nnc(SCCn2nc3ccccn3c2=O)s1	> 99.5 µM
C=C(C)c1cc(NC(=O)OCc2ccccc2)cc(C(=O)Nc2cccc(CN)c2)c1	14.8 µM
O=C(Cn1ccnc(N2CC[C@H](CO)C2)c1=O)NCc1cc[nH]n1	> 99.5 µM
O=C(Cn1ccnc(N2CC[C@H](CO)C2)c1=O)N1CCOCC1	> 99.5 µM
O=c1c2cccn2cnn1Cc1cnc(Cl)s1	> 99.5 µM
O=c1c2ccccc2ncn1CCCn1cnc2ccccc2c1=O	> 99.5 µM
NC1(c2cc(C(F)(F)F)ccc2NS(=O)(=O)c2ccc(Oc3ccccc3Cl)cc2)CC1	> 99.5 µM
NCc1cccc(NC(=O)[C@H](NC(=O)OCc2ccccc2)c2ccc(OCc3ccccc3)c(Br)c2)c1	5.07 µM
NCc1cccc(NC(=O)c2nn(-c3ccccc3F)cc2Br)c1	> 99.5 µM
O=C(Nc1cc(Cl)cc(C(=O)Nc2cccc([C@H]3CNCCO3)c2)c1)OCc1ccccc1	> 99.5 µM
NCCc1cccc(NC(=O)[C@H]2[C@H]3CCCCC[C@H]3[C@H]2NC(=O)OCc2ccccc2)c1	7.87 µM
NCc1cccc(CCc2cc(Cl)cc(NC(=O)OCc3ccccc3)c2)c1	9.6 µM
COC(=O)c1cc2scc(Br)c2[nH]1	> 99.5 µM
NCCOc1ccnc(NS(=O)(=O)c2ccc(Oc3ccccc3Cl)cc2)c1	> 99.5 µM
C[C@@H](NCc1c[nH]c2ccccc12)c1cscn1	> 99.5 µM

SMILES	IC50
NCc1cccc(NC(=O)C[C@H](CC(N)=O)c2ccc(F)cc2)c1	> 99.5 µM
N[C@H]1CCc2ccc(NC(=O)c3cc(Cl)cc(NC(=O)OCc4ccccc4)c3)cc21	8.42 µM
CS(=O)(=O)Nc1c(Cl)cc(Cl)cc1C(=O)Nc1cccc(CN)c1	> 99.5 µM
Cc1cc(CN)cc(NS(=O)(=O)c2ccc(Oc3ccccc3Cl)cc2)c1	> 99.5 µM
NCc1cccc(NC(=O)c2ccnc3[nH]c(C4CCOCC4)nc23)c1	> 99.5 µM
NCc1cccc(NC(=O)c2cc(Br)cnc2OCC2CC2)c1	> 99.5 µM
COc1ccc(COc2ccc([C@H](NC(=O)OCc3ccccc3)C(=O)Nc3cccc(CN)c3)cc2)cn1	38.8 µM
NC1(c2ccccc2NS(=O)(=O)c2ccc(Oc3ccccc3Cl)cc2)CC1	> 99.5 µM
c1csc(CSc2nnc(Cn3cncn3)o2)c1	> 99.5 µM
N[C@H]1CCN(c2ccc(NS(=O)(=O)c3ccc(Oc4ccccc4Cl)cc3)cc2)C1	37.3 µM
NCc1cccc(NC(=O)[C@H](NC(=O)OCc2ccccc2)c2ccc(OCC3CCC3)cc2)c1	28.5 µM
c1ccc2c(CNC3CCN(Cc4cscn4)CC3)c[nH]c2c1	> 99.5 µM
OC[C@H](Cc1cccnc1)NCc1c[nH]c2ccccc12	> 99.5 µM
CC(C)c1nc2c(C(=O)Nc3cccc(CN)c3)cccc2[nH]1	14.3 µM
Cc1ccc(-n2nc(C(=O)Nc3cccc(CN)c3)ccc2=O)cc1Cl	> 99.5 µM
COc1cc(C(=O)Nc2cccc(CN)c2)cc(NC(=O)OCc2ccccc2)c1Cl	38.1 µM
c1csc(-c2nnc(Sc3ncnc4sccc34)o2)c1	> 99.5 µM
NC1(c2cccc(NS(=O)(=O)c3ccc(Oc4ccccc4Cl)cc3)c2)CCC1	> 99.5 µM
NCc1cccnc1NS(=O)(=O)c1ccc(Oc2ccccc2Cl)cc1	> 99.5 µM
N[C@H]1CCOc2ccc(NC(=O)c3cc(Cl)cc(NC(=O)OCc4ccccc4)c3)cc21	10.6 µM
O=C(O)C[C@H](NC(=O)OCc1ccccc1)c1ccc(OCc2ccccc2)c(Br)c1	> 99.5 µM
